Measurements as given in patent US20210177982A1, “MUCUS-PENETRATING PEPTIDES, DELIVERY VEHICLES AND METHODS OF THERAPY” (DNALite Therapeutics, Inc., priority 2018, published 2021).

Legend:
[1] = pH 7 (No salt); cited from earlier work
[2] = 25° C., RP-HPLC, Ac-X-G-A-K-G-A-G-V-G L-amide; cited from earlier work
[3] = In-vivo distribution assay (intrarectal, colon cryosections, epifluorescence); set-up: species or system BALB/c female mice; conditions: peptide-coupled DiI/DiO lipid nanoparticle, 30 μg DNA intrarectally, colon after 4 hours, compared to base lipid nanoparticle
Procedure: Three separate lipid nanoparticle formulations were prepared, one coupled to SEQ ID NO: 29, another coupled to transactivator of transcription peptide (TAT; SEQ ID NO:37) and the last without any coupling, all carried plasmid DNA and included 0.5% mol DiI and DiO labeling. 30 μg of DNA encapsulated in the DiI/DiO lipid nanoparticle are dosed intrarectally in BALB/c female mice (Charles River Laboratory, MA) anesthetized under 1-3% isofluorane. After 4 hours, the mice are euthanized under 25% CO2 and the colon is removed and embedded in optimal cutting temperature (OCT) media. The OCT media sections are flash frozen at −80 degrees Celsius and intestinal sections are taken in a cryostat. Epifluorescence images are taken of crypts under 531 nm excitation with 593 nm emission and overlaid with brightfield illumination. FIGS. 32A-32B.

Poliovirus Receptor = target: T1, Poliovirus Receptor (Homo sapiens, UniProt P15151); conditions: cited from earlier work
T1 sequence (P15151 21-417): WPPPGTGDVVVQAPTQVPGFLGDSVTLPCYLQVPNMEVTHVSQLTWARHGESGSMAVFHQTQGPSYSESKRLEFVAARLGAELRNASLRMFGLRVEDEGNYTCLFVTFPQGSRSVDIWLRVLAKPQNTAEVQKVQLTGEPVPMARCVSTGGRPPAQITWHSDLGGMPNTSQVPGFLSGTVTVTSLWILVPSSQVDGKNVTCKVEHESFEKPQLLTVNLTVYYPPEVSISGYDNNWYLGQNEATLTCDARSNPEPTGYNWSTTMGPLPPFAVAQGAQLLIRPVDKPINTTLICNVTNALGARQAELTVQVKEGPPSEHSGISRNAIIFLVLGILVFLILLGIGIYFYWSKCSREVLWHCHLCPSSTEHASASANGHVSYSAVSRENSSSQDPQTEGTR

Compound: N[C@@H](Cc1ccccc1)C(=O)O [Phe]
- Fauchere Score [1]: 1.79
- ΔtR(Gly), pH 2, 20 mM H3PO4 [2]: 29.1
- ΔtR(Gly), pH 2, 20 mM TFA [2]: 29.1
- ΔtR(Gly), pH 5, 10 mM PO4 Buffer [2]: 30.1
- ΔtR(Gly), pH 7, 10 mM PO4 Buffer +50 mM NaCl [2]: 30.1
- ΔtR(Gly), pH 7, 10 mM PO4 Buffer +50 mM NaClO4 [2]: 30.8
- ΔtR(Gly), pH 7, 10 mM PO4 Buffer, No Salt [2]: 29.9

Compound: O=C(O)[C@@H]1CCCN1 [Pro]
- Fauchere Score [1]: 0.720
- ΔtR(Gly), pH 2, 20 mM H3PO4 [2]: 9.4
- ΔtR(Gly), pH 2, 20 mM TFA [2]: 9.0
- ΔtR(Gly), pH 5, 10 mM PO4 Buffer [2]: 9.4
- ΔtR(Gly), pH 7, 10 mM PO4 Buffer +50 mM NaCl [2]: 10.4
- ΔtR(Gly), pH 7, 10 mM PO4 Buffer +50 mM NaClO4 [2]: 9.9
- ΔtR(Gly), pH 7, 10 mM PO4 Buffer, No Salt [2]: 9.7

Compound: C[C@@H](O)[C@H](N)C(=O)O [Thr]
- Fauchere Score [1]: 0.260
- ΔtR(Gly), pH 2, 20 mM H3PO4 [2]: 2.8
- ΔtR(Gly), pH 2, 20 mM TFA [2]: 2.3
- ΔtR(Gly), pH 5, 10 mM PO4 Buffer [2]: 2.8
- ΔtR(Gly), pH 7, 10 mM PO4 Buffer +50 mM NaCl [2]: 4.1
- ΔtR(Gly), pH 7, 10 mM PO4 Buffer +50 mM NaClO4 [2]: 2.5
- ΔtR(Gly), pH 7, 10 mM PO4 Buffer, No Salt [2]: 3.9

Compound: N[C@@H](Cc1c[nH]c2ccccc12)C(=O)O [Trp]
- Fauchere Score [1]: 2.250
- ΔtR(Gly), pH 2, 20 mM H3PO4 [2]: 32.3
- ΔtR(Gly), pH 2, 20 mM TFA [2]: 32.4
- ΔtR(Gly), pH 5, 10 mM PO4 Buffer [2]: 33.2
- ΔtR(Gly), pH 7, 10 mM PO4 Buffer +50 mM NaCl [2]: 33.0
- ΔtR(Gly), pH 7, 10 mM PO4 Buffer +50 mM NaClO4 [2]: 33.7
- ΔtR(Gly), pH 7, 10 mM PO4 Buffer, No Salt [2]: 32.9

Compound: N[C@@H](Cc1ccc(O)cc1)C(=O)O [Tyr]
- Fauchere Score [1]: 0.960
- ΔtR(Gly), pH 2, 20 mM H3PO4 [2]: 15.4
- ΔtR(Gly), pH 2, 20 mM TFA [2]: 14.7
- ΔtR(Gly), pH 5, 10 mM PO4 Buffer [2]: 15.2
- ΔtR(Gly), pH 7, 10 mM PO4 Buffer +50 mM NaCl [2]: 16.0
- ΔtR(Gly), pH 7, 10 mM PO4 Buffer +50 mM NaClO4 [2]: 15.1
- ΔtR(Gly), pH 7, 10 mM PO4 Buffer, No Salt [2]: 15.4

Compound: CC(C)[C@H](N)C(=O)O [Val]
- Fauchere Score [1]: 1.220
- ΔtR(Gly), pH 2, 20 mM H3PO4 [2]: 13.8
- ΔtR(Gly), pH 2, 20 mM TFA [2]: 13.4
- ΔtR(Gly), pH 5, 10 mM PO4 Buffer [2]: 14.0
- ΔtR(Gly), pH 7, 10 mM PO4 Buffer +50 mM NaCl [2]: 15.0
- ΔtR(Gly), pH 7, 10 mM PO4 Buffer +50 mM NaClO4 [2]: 14.6
- ΔtR(Gly), pH 7, 10 mM PO4 Buffer, No Salt [2]: 14.4

Compound: GRKKRRQRRRPQ (Human immunodeficiency virus) [SEQ ID NO. 37]
- distribution of the particle at the surface of the intestinal epithelial cells [3]: reduced the distribution of the particle at the surface of the intestinal epithelial cells

Compound: TVDNPASTTNKDKLFAV [SEQ ID NO. 28]
- interaction with the Poliovirus Receptor (Poliovirus Receptor): has been shown to interact with the Poliovirus Receptor
